# Experimental data from publication doi:10.1101/2021.09.10.459855v1 (bioRxiv, 2021).
# Columns and labels:
# [1] = system: LPS-activated DC CCL22 production; test: DC CCL22 production; assay type: cell-based, mouse
# [2] = system: LPS-activated DC TNF-α secretion; test: DC TNF-α secretion; assay type: cell-based, mouse; details: for Decrease of DC TNF-α secretion: 6 hours
# [3] = system: LPS-activated Mφ TNF-α secretion (mouse RAW 264.7); test: Mφ TNF-α secretion; assay type: cell-based; details: 6 hours
# Micelle surface charge = assay type: physicochemical; details: 100 μM in deionized, distilled water (ddH2O); Malvern DLS Zetasizer
# [4] = Micelle morphology by negative-stain TEM; assay type: physicochemical
# [5] = system: MHC II and CD86 on LPS-activated DCs; test: DC surface marker expression, MHC II+CD86+ population; assay type: cell-based, mouse; details: 24 hours, 100 μM
substance,measurement,setting,value
Vasoactive intestinal peptide [VIP],DC CCL22 production,[1]; 1 μM and 10 μM (Figure S7),reduced CCL22 production
same,DC CCL22 production,[1]; 100 μM (Figure S7),enhanced CCL22 expression
same,Decrease of DC TNF-α secretion,[2]; 10 μM,slightly
same,Decrease of DC TNF-α secretion,[2]; 100 μM,more extensively
same,DC TNF-α secretion,"[2]; 24 hours, 1 μM and 10 μM, versus LPS alone",suppressed TNF-α generation
same,Mφ TNF-α secretion,[3]; 100 μM,cytokine secretion was suppressed
same,Mφ TNF-α secretion,"[3]; concentration-dependent (0.1 - 100 μM), versus LPS alone",mild to moderate TNF-α suppression
same,Zeta potential,Micelle surface charge,6.82 ± 0.67 mV
same,Aggregation / particle morphology,[4]; 100 μM (highest concentration),aggregate into spherical nanoparticles
same,Particle formation,[4]; lower concentrations than 100 μM (data not shown),no particle formation was observed
same,MHC II and CD86 surface markers on DCs,[5],failed to downregulate MHC II and CD86
